According to patent publication US8178552B2, “7-Azaindole derivatives and their use in the inhibition of c-Jun N-terminal kinase” (Eisai R&D Management Co., Ltd., priority 2008, dated 2012):

Tests used:
JNK3 = JNK3 (Homo sapiens, UniProt P53779); experiment: JNK3 SPA assay; assay type: biochemical; conditions: 3.33 μM ATP, GST-c-Jun substrate; read-out: IC50 against JNK3
In short: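 Radiometric SPA using GST-c-Jun with [γ-33P]ATP in 25 mM HEPES pH 7.5 and 10 mM Mg acetate; the substrate solution held 3.33 µM ATP (JNK2/3) or 2 µM ATP (JNK1). Reactions ran 30 min at room temperature and were stopped with glutathione SPA beads plus 40 mM ATP. IC50 is the concentration halving c-Jun phosphorylation versus control.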

c-Jun phosphorylation = experiment: LPS-induced c-Jun phosphorylation in spleen of mice (HTRF); assay type: in vivo, male C57/B16 mice; conditions: Mus musculus, po; 20 mg/kg p.o. 30 min before LPS 10 mg/kg i.p.; 1 hour after LPS; versus vehicle-treated animals; read-out: Percentage reduction in the level of P-c-Jun in spleen
Description: (§1) The studies were carried out in male C57/B16 mice. Compounds (20 mg/kg; p.o.) were administered 30 minutes before injection of lipopolysaccharide (LPS). LPS was administered intraperitoneally at a dose of 10 mg/kg. Animals were sacrificed 1 hour following LPS injection. Blood was collected into heparinized tubes for measurement of plasma TNFα levels and spleens were collected for the measurement of c-Jun phosphorylation. Plasma TNFα was measured using an ELISA kit purchased from R&D systems. Spleens were homogenised, extracted in high salt (250 mM NaCl) lysis buffer with phosphatase inhibitors and c-Jun phosphorylation was measured using HTRF. The suppressive effect of compounds was calculated as the percentage reduction of the TNFα level in plasma and P-c-Jun level in spleen as compared with the vehicle-treated animals.

TNFα = experiment: LPS-induced TNFα suppression in mice (plasma TNFα, ELISA); assay type: in vivo, male C57/B16 mice; conditions: Mus musculus, po; 20 mg/kg p.o. 30 min before LPS 10 mg/kg i.p.; 1 hour after LPS; versus vehicle-treated animals; read-out: Percentage reduction in the level of TNFα in plasma
Description: as §1

JNK3, sequence (P53779 whole entry, species assumed): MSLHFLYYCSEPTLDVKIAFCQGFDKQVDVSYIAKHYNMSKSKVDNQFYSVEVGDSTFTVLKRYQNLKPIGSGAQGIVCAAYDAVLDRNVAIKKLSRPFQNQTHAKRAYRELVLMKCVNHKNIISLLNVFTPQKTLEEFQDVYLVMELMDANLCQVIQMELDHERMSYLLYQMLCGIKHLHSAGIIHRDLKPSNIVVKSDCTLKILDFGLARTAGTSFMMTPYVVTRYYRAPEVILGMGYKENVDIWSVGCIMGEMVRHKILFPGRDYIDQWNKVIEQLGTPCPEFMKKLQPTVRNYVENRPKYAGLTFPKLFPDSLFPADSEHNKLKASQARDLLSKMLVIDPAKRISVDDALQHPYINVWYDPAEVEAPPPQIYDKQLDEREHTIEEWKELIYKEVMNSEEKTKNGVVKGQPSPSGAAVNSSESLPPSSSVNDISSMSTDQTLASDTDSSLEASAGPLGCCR

Row | Compound | IC50 (JNK3) | inhibition in vivo at 20 mg/kg (c-Jun phosphorylation) | inhibition in vivo at 20 mg/kg (TNFα)
1 | CN1CCN([C@H]2CC[C@@H](c3cnc4[nH]cc(-c5cnn(C)c5)c4c3)CC2)CC1 [Compound I-26, 3-(1-methyl-1H-pyrazol-4-yl)-5-((1s,4s)-4-(4-methylpiperazin-1-yl)cyclohexyl)-1H-pyrrolo[2,3-b]pyridine] | 94 nM | 16% | 71%
2 | Cn1cc(-c2c[nH]c3ncc(C4CCCCC4)cc23)cn1 [Compound I-16, 5-cyclohexyl-3-(1-methyl-1H-pyrazol-4-yl)-1H-pyrrolo[2,3-b]pyridine] | 40 nM | 20% | 45%
3 | CC(C)N1CCN([C@H]2CC[C@H](c3cnc4[nH]cc(-c5cnn(C)c5)c4c3)CC2)CC1 [Compound I-43, 5-((1r,4r)-4-(4-isopropylpiperazin-1-yl)cyclohexyl)-3-(1-methyl-1H-pyrazol-4-yl)-1H-pyrrolo[2,3-b]pyridine] | 117 nM | 0% | 74%
4 | Cn1cc(-c2c[nH]c3ncc([C@H]4CC[C@H](N5CCCC5)CC4)cc23)cn1 [Compound I-24, 3-(1-methyl-1H-pyrazol-4-yl)-5-((1r,4r)-4-(pyrrolidin-1-yl)cyclohexyl)-1H-pyrrolo[2,3-b]pyridine] | 83 nM | 23% | 57%
5 | Cn1cc(-c2c[nH]c3ncc(C4C5CC6CC(C5)CC4C6)cc23)cn1 (centres unmarked) [Compound I-154, 3-(1-Methyl-1H-pyrazol-4-yl)-5-tricyclo[3.3.1.1˜3,7˜]dec-2-yl-1H-pyrrolo[2,3-b]pyridine] | 62 nM | 33% | 60%
6 | Cn1cc(-c2c[nH]c3ncc(C4=CCCC4)cc23)cn1 [Compound I-10, 5-cyclopentenyl-3-(1-methyl-1H-pyrazol-4-yl)-1H-pyrrolo[2,3-b]pyridine] | 17 nM | 75% | 62%
7 | Cn1cc(-c2c[nH]c3ncc([C@H]4CC[C@@H](N5CCCOCC5)CC4)cc23)cn1 [Compound I-39, 4-((1s,4s)-4-(3-(1-methyl-1H-pyrazol-4-yl)-1H-pyrrolo[2,3-b]pyridin-5-yl)cyclohexyl)-1,4-oxazepane] | 184 nM | 10% | 67%
8 | Cn1cc(-c2c[nH]c3ncc(C4=CCCC5C4C5(C)C)cc23)cn1 (centres unmarked) [Compound I-141, 5-(7,7-dimethylbicyclo[4.1.0]hept-2-en-2-yl)-3-(1-methyl-1H-pyrazol-4-yl)-1H-pyrrolo[2,3-b]pyridine] | 288 nM | 4% | 43%
9 | Cn1cc(-c2c[nH]c3ncc([C@H]4CC[C@@H](N5CCOCC5)CC4)cc23)cn1 [Compound I-7, 4-((1s,4s)-4-(3-(1-methyl-1H-pyrazol-4-yl)-1H-pyrrolo[2,3-b]pyridin-5-yl)cyclohexyl)morpholine] | 60 nM | 18% | 63%
10 | CCCN(C)[C@H]1CC[C@@H](c2cnc3[nH]cc(-c4cnn(C)c4)c3c2)CC1 [Compound I-116, (1s,4s)-N-methyl-4-(3-(1-methyl-1H-pyrazol-4-yl)-1H-pyrrolo[2,3-b]pyridin-5-yl)-N-propylcyclohexanamine] | 309 nM | – | –
11 | CCN(C)[C@H]1CC[C@@H](c2cnc3[nH]cc(-c4cnn(C)c4)c3c2)CC1 [Compound I-110, (1s,4s)-N-ethyl-N-methyl-4-(3-(1-methyl-1H-pyrazol-4-yl)-1H-pyrrolo[2,3-b]pyridin-5-yl)cyclohexanamine] | 355 nM | – | –
12 | Cn1cc(-c2c[nH]c3ncc([C@H]4CC[C@@H](N5CC[C@H](F)C5)CC4)cc23)cn1 [Compound I-49, 5-((1R,4s)-4-((S)-3-fluoropyrrolidin-1-yl)cyclohexyl)-3-(1-methyl-1H-pyrazol-4-yl)-1H-pyrrolo[2,3-b]pyridine] | 316 nM | – | –
13 | Cn1cc(-c2c[nH]c3ncc([C@H]4CC[C@@H](N5CCC(F)(F)C5)CC4)cc23)cn1 [Compound I-48, 5-((1s,4s)-4-(3,3-difluoropyrrolidin-1-yl)cyclohexyl)-3-(1-methyl-1H-pyrazol-4-yl)-1H-pyrrolo[2,3-b]pyridine] | 182 nM | – | –
14 | CN1CCN([C@H]2CC[C@H](c3cnc4[nH]cc(-c5cnn(C(F)(F)F)c5)c4c3)CC2)CC1 [Compound I-66, 5-((1r,4r)-4-(4-methylpiperazin-1-yl)cyclohexyl)-3-(1-(trifluoromethyl)-1H-pyrazol-4-yl)-1H-pyrrolo[2,3-b]pyridine] | 219 nM | – | –
15 | c1nn(CCN2CCOCC2)cc1-c1c[nH]c2ncc([C@H]3CC[C@H](N4CCOCC4)CC3)cc12 [Compound I-57, 4-(2-(4-(5-((1r,4r)-4-morpholinocyclohexyl)-1H-pyrrolo[2,3-b]pyridin-3-yl)-1H-pyrazol-1-yl)ethyl)morpholine] | 417 nM | – | –
16 | CO[C@]1(c2cnc3[nH]cc(-c4cnn(C)c4)c3c2)CC[C@H](N2CCOCC2)CC1 [Compound I-163, 4-((1s,4s)-4-methoxy-4-(3-(1-methyl-1H-pyrazol-4-yl)-1H-pyrrolo[2,3-b]pyridin-5-yl)cyclohexyl)morpholine] | 1480 nM | – | –
17 | Cn1cc(-c2c[nH]c3ncc(C4CC5CC4C(CO)C5CO)cc23)cn1 (centres unmarked) [Compound I-140, (5-(3-(1-methyl-1H-pyrazol-4-yl)-1H-pyrrolo[2,3-b]pyridin-5-yl)bicyclo[2.2.1]heptane-2,3-diyl)dimethanol] | 87 nM | – | –
18 | c1nn(CCN2CCOCC2)cc1-c1c[nH]c2ncc([C@H]3CC[C@@H](N4CCOCC4)CC3)cc12 [Compound I-58, 4-(2-(4-(5-((1s,4s)-4-morpholinocyclohexyl)-1H-pyrrolo[2,3-b]pyridin-3-yl)-1H-pyrazol-1-yl)ethyl)morpholine] | > 500 nM | – | –
19 | Mixture of 3-(1-methyl-1H-pyrazol-4-yl)-5-(5-methylcyclohex-1-enyl)-1H-pyrrolo[2,3-b]pyridine and 3-(1-methyl-1H-pyrazol-4-yl)-5-(3-methylcyclohex-1-enyl)-1H-pyrrolo[2,3-b]pyridine [Compound I-29] | 98 nM | – | –
20 | Cn1cc(-c2c[nH]c3ncc(C4=CCC5(CC4)OCCO5)cc23)cn1 [Compound I-14, 5-(1,4-Dioxa-spiro[4.5]dec-7-en-8-yl)-3-(1-methyl-1H-pyrazol-4-yl)-1H-pyrrolo[2,3-b]pyridine] | 224 nM | – | –
21 | Mixture of 3-(1-methyl-1H-pyrazol-4-yl)-5-(6-methylcyclohex-1-enyl)-1H-pyrrolo[2,3-b]pyridine and 3-(1-methyl-1H-pyrazol-4-yl)-5-(2-methylcyclohex-1-enyl)-1H-pyrrolo[2,3-b]pyridine [Compound I-30] | 170 nM | – | –
22 | FC(F)n1cc(-c2c[nH]c3ncc([C@H]4CC[C@H](N5CCOCC5)CC4)cc23)cn1 [Compound I-80, 4-((1r,4r)-4-(3-(1-(difluoromethyl)-1H-pyrazol-4-yl)-1H-pyrrolo[2,3-b]pyridin-5-yl)cyclohexyl)morpholine] | 148 nM | – | –
23 | Cn1cc(-c2c[nH]c3ncc(C4=CCC(C(C)(C)C)CC4)cc23)cn1 (centres unmarked) [Compound I-2, 5-(4-tert-butylcyclohex-1-enyl)-3-(1-methyl-1H-pyrazol-4-yl)-1H-pyrrolo[2,3-b]pyridine] | 199 nM | – | –
24 | CCOCCN(CC)[C@H]1CC[C@@H](c2cnc3[nH]cc(-c4cnn(C)c4)c3c2)CC1 [Compound I-108, (1s,4s)-N-(2-ethoxyethyl)-N-ethyl-4-(3-(1-methyl-1H-pyrazol-4-yl)-1H-pyrrolo[2,3-b]pyridin-5-yl)cyclohexanamine] | 204 nM | – | –
25 | CCOCCN[C@H]1CC[C@H](c2cnc3[nH]cc(-c4cnn(C)c4)c3c2)CC1 [Compound I-119, (1r,4r)-N-(2-ethoxyethyl)-4-(3-(1-methyl-1H-pyrazol-4-yl)-1H-pyrrolo[2,3-b]pyridin-5-yl)cyclohexanamine] | 257 nM | – | –
26 | Cn1cc(-c2c[nH]c3ncc(C4CCCCCC4)cc23)cn1 [Compound I-17, 5-cycloheptyl-3-(1-methyl-1H-pyrazol-4-yl)-1H-pyrrolo[2,3-b]pyridine] | 162 nM | – | –
27 | CCC1CC=C(c2cnc3[nH]cc(-c4cnn(C)c4)c3c2)CC1 (centres unmarked) [Compound I-8, 5-(4-ethylcyclohex-1-enyl)-3-(1-methyl-1H-pyrazol-4-yl)-1H-pyrrolo[2,3-b]pyridine] | 16 nM | – | –
28 | Cn1cc(-c2c[nH]c3ncc(C4=CC(C)(C)CC(C)(C)C4)cc23)cn1 [Compound I-28, 3-(1-methyl-1H-pyrazol-4-yl)-5-(3,3,5,5-tetramethylcyclohex-1-enyl)-1H-pyrrolo[2,3-b]pyridine] | 5500 nM | – | –
29 | Cn1cc(-c2c[nH]c3ncc(C4CCC(F)(F)CC4)cc23)cn1 [Compound I-42, 5-(4,4-difluorocyclohexyl)-3-(1-methyl-1H-pyrazol-4-yl)-1H-pyrrolo[2,3-b]pyridine] | 138 nM | – | –
